From US11034725B2, “Compositions and methods for treating cardiovascular disease” (Genentech, Inc., priority 2016, dated 2021)
Where two headings read alike, the source gives them in different places. Bridge positions count the residues as written; N and C are the ends. Square brackets hold non-standard residues; d marks the D form. Peptide text beside a SMILES is read from it. * marks the point of attachment. Trp(6-F) = N[C@@H](Cc1c[nH]c2cc(F)ccc12)C(=O)O; Trp(6-Me) = Cc1ccc2c(C[C@H](N)C(=O)O)c[nH]c2c1; hArg = N=C(N)NCCCC[C@H](N)C(=O)O; Pentanoyl = CCCCC(=O)*; Ahp = NCCCCCCC(=O)O; Butyryl = CCCC(=O)*; Ahx = NCCCCCC(=O)O; Ava = NCCCCC(=O)O

Key:
PCSK9 = PCSK9 (Homo sapiens, UniProt Q8NBP7); assay: PCSK9/EGF(A) TR-FRET binding assay; details: TR-FRET, read-out: PCSK9/EGF(A) IC50
PCSK9Δhelix = biological target: T1, PCSK9Δhelix (Homo sapiens, UniProt Q8NBP7); assay: PCSK9Δhelix/Ab20 TR-FRET binding assay; details: for IC50: TR-FRET, read-out: PCSK9Δhelix/Ab20 IC50
T1 construct: Human PCSK9 construct M1-Q692 with an engineered TEV site (residue deletion Y166, R167); made in house; host or cells: CHO

His-EGF(A)-Fc = His-EGF(A)-Fc TR-FRET counterscreen
Experimental: The former was based on a TF-FRET assay to measure the association of the EGF(A) domain of the LDLR to PCSK9 (“PCSK9/EGF(A) binding assay”) whilst the latter was based on a TR-FRET assay to measure binding of Ab20 to PCSK9Δhelix (“PCSK9Δhelix/Ab20 binding assay”).
The ability of compounds to inhibit binding to PCSK9 was evaluated with a panel of time-resolved fluorescence resonance energy transfer (TR-FRET) binding assays. […] The PCSK9Δhelix/Ab20 binding assay evaluated the ability of compounds to compete with Ab20 for binding to the N-terminal groove region in a His-tagged, PCSK9Δhelix construct. […] Signal generation in the PCSK9 binding assays was dependent upon the binding interaction to bring into close proximity the His-tag on the PCSK9 and the Fc-tag on the ligand. Anti-His-APC was bound to the His-tag, and anti-Fc-europium was bound to the Fc-tag. When these two antibodies were in close proximity and were irradiated with light at 340 nm, the europium was excited and emitted energy at 615 nm. This energy was taken up by the APC and was emitted as light at 665 nm. Compounds that competed with the ligand reduced the energy transfer and thus the emission at 665 nm. In the His-EGFA-Fc molecule in the counterscreen, the two tags were always in close proximity, thus any reduction in emission at 665 nm was due to interference with the detection system.
Compounds were solubilized and dilutions were prepared in DMSO. […] The plate was centrifuged to mix the well contents and allowed to incubate for 30 min. […] The TR-FRET signal was read on a ViewLux reader (PerkinElmer) with excitation at 340 nm and emission at 615 and 665 nm with a 50-μs time delay between excitation and measurement of emission. The TR-FRET ratio was calculated as the fluorescence emission at 665 nm divided by the fluorescence emission at 615 nm. The normalized TR-FRET ratios were plotted as a function of the compound concentrations, and the IC50 values were determined using a 4-parameter logistic regression.
In black 1536-well assay plates (MaKO, Aurora® Microplates, Whitefish, Mont.), 40 nL of peptide in DMSO were preincubated with 2 μL His-tagged PCSK9 plus anti-His-allophycocyanin in assay buffer (50 mM Tris-HCl, pH 7.5, 150 mM NaCl, 2 mM CaCl2, 0.01% Tween®-20, 0.1% bovine gamma globulins, and protease inhibitor cocktail) for 30 min. Then 2 μL of Fc-tagged ligand and anti-Fc-europium in assay buffer were added and allowed to incubate for 2 h.

[1] = Table 8D, disulfide-cyclized extension peptides
[2] = TR-FRET counterscreen, Table 8D, * = some inhibition at highest concentrations, not sufficient to fit an IC50
[3] = TR-FRET counterscreen, Table 8E, additional compounds

PCSK9, sequence (Q8NBP7 153-692): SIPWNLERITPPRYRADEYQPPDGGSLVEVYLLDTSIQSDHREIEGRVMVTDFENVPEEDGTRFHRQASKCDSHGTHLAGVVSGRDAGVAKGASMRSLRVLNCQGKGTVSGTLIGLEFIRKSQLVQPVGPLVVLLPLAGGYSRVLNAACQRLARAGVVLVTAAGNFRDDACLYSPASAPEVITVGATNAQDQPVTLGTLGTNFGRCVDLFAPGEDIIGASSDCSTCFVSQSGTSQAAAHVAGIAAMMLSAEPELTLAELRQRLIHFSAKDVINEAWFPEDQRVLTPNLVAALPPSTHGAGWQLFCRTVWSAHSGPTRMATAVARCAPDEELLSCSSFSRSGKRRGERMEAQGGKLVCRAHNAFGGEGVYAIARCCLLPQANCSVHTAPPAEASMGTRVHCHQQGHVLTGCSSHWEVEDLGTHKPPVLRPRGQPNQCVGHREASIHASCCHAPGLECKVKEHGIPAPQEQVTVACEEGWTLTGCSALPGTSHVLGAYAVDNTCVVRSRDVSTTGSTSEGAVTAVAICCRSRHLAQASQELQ
PCSK9, sequence (Q8NBP7 31-152 partner limits assumed): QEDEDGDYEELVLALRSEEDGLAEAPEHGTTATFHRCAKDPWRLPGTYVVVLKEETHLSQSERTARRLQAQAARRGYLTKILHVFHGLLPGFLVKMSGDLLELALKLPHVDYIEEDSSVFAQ
T1 sequence (Q8NBP7 with tags, fused parts or gaps limits assumed): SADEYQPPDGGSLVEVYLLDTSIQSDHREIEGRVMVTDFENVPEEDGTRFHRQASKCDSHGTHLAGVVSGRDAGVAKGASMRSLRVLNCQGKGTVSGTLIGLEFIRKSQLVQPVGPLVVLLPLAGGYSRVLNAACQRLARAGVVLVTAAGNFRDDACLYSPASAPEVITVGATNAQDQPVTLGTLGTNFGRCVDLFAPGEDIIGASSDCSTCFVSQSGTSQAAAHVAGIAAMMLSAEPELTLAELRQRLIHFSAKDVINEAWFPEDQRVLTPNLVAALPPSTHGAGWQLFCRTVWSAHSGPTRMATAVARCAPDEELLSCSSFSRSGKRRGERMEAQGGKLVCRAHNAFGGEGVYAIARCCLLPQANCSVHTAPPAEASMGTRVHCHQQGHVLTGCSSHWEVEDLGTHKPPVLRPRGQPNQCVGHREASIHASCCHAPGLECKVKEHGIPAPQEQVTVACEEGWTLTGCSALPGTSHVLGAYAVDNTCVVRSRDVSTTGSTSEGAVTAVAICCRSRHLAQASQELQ
T1 sequence (Q8NBP7 31-152 partner limits assumed): as the sequence (Q8NBP7 31-152 partner limits assumed) above

SMILES	IC50 (PCSK9; [1])	IC50 (PCSK9Δhelix; [1])	IC50 (His-EGF(A)-Fc; [2])	IC50 (PCSK9; Table 8E, additional compounds)	IC50 (PCSK9Δhelix; Table 8E, additional compounds)	IC50 (His-EGF(A)-Fc; [3])	further results
CC[C@H](C)[C@@H]1NC(=O)[C@H](CCCNC(=N)N)NC(=O)[C@H](CCC(N)=O)NC(=O)[C@H](CC(C)C)NC(=O)[C@H](CC(N)=O)NC(=O)[C@H](Cc2c[nH]c3ccccc23)NC(=O)[C@@H]2CCCN2C(=O)[C@H](CC(C)C)NC(=O)[C@@H](CCCNC(=N)N)NC(=O)[C@@H](NC(C)=O)CSSC[C@@H](C(N)=O)NC(=O)[C@@H]2CCCN2C(=O)[C@H](CC(C)C)NC(=O)CNC1=O [Compound 109] (Ac-C[dR]LPWNLQRIGLPC-NH2; disulfide 1-14)	> 50 µM	1.67 µM	> 50 µM	–	–	–	–
CCCCC(=O)N[C@@H](Cc1c[nH]c2ccccc12)C(=O)N[C@@H](CC(N)=O)C(=O)N[C@@H](CC(C)C)C(=O)N[C@H](C(=O)N[C@@H](CCCNC(=N)N)C(=O)N[C@H](C(=O)NCC(=O)N[C@@H](CC(C)C)C(=O)N[C@@H](CC(C)C)C(=O)N[C@@H](CCCNC(=N)N)C(N)=O)[C@@H](C)CC)C(C)C [Compound 111] (Pentanoyl-WNLVRIGLLR-NH2)	–	–	–	–	–	–	IC50 (PCSK9; Example 7): > 50 µM; IC50 (PCSK9Δhelix; Example 7): 4.9 µM; IC50 (His-EGF(A)-Fc; counterscreen, Example 7): > 50 µM
CCCCC(=O)N[C@@H](Cc1c[nH]c2ccccc12)C(=O)N[C@@H](CC(N)=O)C(=O)N[C@@H](CC(C)C)C(=O)N[C@H](C(=O)N[C@@H](CCCNC(=N)N)C(=O)N[C@H](C(=O)NCC(=O)N[C@H](C(=O)N[C@H](C(=O)N[C@@H](CCCNC(=N)N)C(N)=O)[C@@H](C)O)[C@@H](C)O)[C@@H](C)CC)C(C)C [Compound 113] (Pentanoyl-WNLVRIGTTR-NH2)	–	–	–	–	–	–	IC50 (PCSK9; Example 7): > 50 µM; IC50 (PCSK9Δhelix; Example 7): > 50 µM; IC50 (His-EGF(A)-Fc; counterscreen, Example 7): > 50 µM
CCCCC(=O)N[C@@H](Cc1c[nH]c2ccccc12)C(=O)N[C@@H](CC(N)=O)C(=O)N[C@@H](CC(C)C)C(=O)N[C@H](C(=O)N[C@@H](CCCNC(=N)N)C(=O)N[C@H](C(=O)NCC(=O)N[C@H](C(=O)N[C@@H](CC(C)C)C(=O)N[C@@H](CCCNC(=N)N)C(N)=O)[C@@H](C)O)[C@@H](C)CC)C(C)C [Compound 114] (Pentanoyl-WNLVRIGTLR-NH2)	–	–	–	–	–	–	IC50 (PCSK9; Example 7): > 50 µM; IC50 (PCSK9Δhelix; Example 7): > 50 µM; IC50 (His-EGF(A)-Fc; counterscreen, Example 7): > 50 µM
CC[C@H](C)[C@@H]1NC(=O)[C@H](CCCNC(=N)N)NC(=O)[C@H](CCC(N)=O)NC(=O)[C@H](CC(C)C)NC(=O)[C@H](CC(N)=O)NC(=O)[C@H](Cc2c[nH]c3ccccc23)NC(=O)[C@@H]2CCCN2C(=O)[C@H](CC(C)C)NC(=O)[C@H](CCCNC(=N)N)NC(=O)[C@@H](NC(C)=O)CSSC[C@@H](C(N)=O)NC(=O)CCCCNC1=O [Compound 115] (Ac-CRLPWNLQRI[Ava]C-NH2; disulfide 1-12)	> 50 µM	> 50 µM	> 50 µM	–	–	–	–
CC[C@H](C)[C@@H]1NC(=O)[C@H](CCCNC(=N)N)NC(=O)[C@H](CCC(N)=O)NC(=O)[C@H](CC(C)C)NC(=O)[C@H](CC(N)=O)NC(=O)[C@H](Cc2c[nH]c3ccccc23)NC(=O)[C@@H]2CCCN2C(=O)[C@H](CC(C)C)NC(=O)[C@H](CCCNC(=N)N)NC(=O)[C@@H](NC(C)=O)CSSC[C@@H](C(N)=O)NC(=O)CCCCCNC1=O [Compound 116] (Ac-CRLPWNLQRI[Ahx]C-NH2; disulfide 1-12)	> 50 µM	31.6 µM	> 50 µM	–	–	–	inhibition in the PCSK9Δhelix/Ab20 binding assay (PCSK9Δhelix): weak but detectable inhibition
CC[C@H](C)[C@@H]1NC(=O)[C@H](CCCCNC(=N)N)NC(=O)[C@H](CCC(N)=O)NC(=O)[C@H](CC(C)C)NC(=O)[C@H](CC(N)=O)NC(=O)[C@H](Cc2c[nH]c3ccccc23)NC(=O)[C@@H]2CCCN2C(=O)[C@H](CC(C)C)NC(=O)[C@H](CCCNC(=N)N)NC(=O)[C@@H](NC(C)=O)CSSC[C@@H](C(N)=O)NC(=O)[C@@H]2CCCN2C(=O)[C@H](CC(C)C)NC(=O)CNC1=O [Compound 117] (Ac-CRLPWNLQ[hArg]IGLPC-NH2; disulfide 1-14)	> 50 µM	0.334 µM	> 50 µM	–	–	–	–
CC[C@H](C)[C@@H]1NC(=O)[C@H](CCCNC(=N)N)NC(=O)[C@H](CCC(N)=O)NC(=O)[C@H](CC(C)C)NC(=O)[C@H](CC(N)=O)NC(=O)[C@H](Cc2c[nH]c3ccccc23)NC(=O)[C@@H]2CCCN2C(=O)[C@H](CC(C)C)NC(=O)[C@H](CCCNC(=N)N)NC(=O)[C@@H](NC(C)=O)CSSC[C@@H](C(N)=O)NC(=O)CCCCCCNC1=O [Compound 121] (Ac-CRLPWNLQRI[Ahp]C-NH2; disulfide 1-12)	> 50 µM	40.3 µM	> 50 µM	–	–	–	inhibition in the PCSK9Δhelix/Ab20 binding assay (PCSK9Δhelix): weak but detectable inhibition
CCCC(=O)N[C@@H](Cc1c[nH]c2ccccc12)C(=O)N[C@@H](CC(N)=O)C(=O)N[C@@H](CC(C)C)C(=O)N[C@H](C(=O)N[C@@H](CCCNC(=N)N)C(=O)N[C@H](C(=O)NCC(=O)N[C@@H](CC(C)C)C(=O)N[C@@H](CC(C)C)C(=O)N[C@@H](CCCNC(=N)N)C(N)=O)[C@@H](C)CC)C(C)C [Compound 123] (Butyryl-WNLVRIGLLR-NH2)	–	–	–	≥ 50 µM	18 µM	≥ 50 µM	–
CCCCC(=O)N[C@@H](Cc1c[nH]c2ccccc12)C(=O)N[C@@H](CC(N)=O)C(=O)N[C@@H](CC(C)C)C(=O)N[C@H](C(=O)N[C@@H](CCCNC(=N)N)C(=O)N[C@H](C(=O)NCC(=O)N[C@@H](CC(C)C)C(=O)N[C@@H](CC(C)C)C(=O)N[C@@H](CCCNC(=N)N)C(=O)O)[C@@H](C)CC)C(C)C [Compound 152] (Pentanoyl-WNLVRIGLLR-OH)	–	–	–	43 µM	14 µM	≥ 50 µM	–
CCCCC(=O)N[C@@H](Cc1c[nH]c2ccccc12)C(=O)N[C@@H](CC(N)=O)C(=O)N[C@@H](CC(C)C)C(=O)N[C@@H](CCCCN)C(=O)N[C@@H](CCCNC(=N)N)C(=O)N[C@H](C(=O)NCC(=O)N[C@@H](CC(C)C)C(=O)N[C@@H](CC(C)C)C(=O)N[C@@H](CCCNC(=N)N)C(N)=O)[C@@H](C)CC [Compound 159] (Pentanoyl-WNLKRIGLLR-NH2)	–	–	–	≥ 50 µM	6.6 µM	≥ 50 µM	–
CCCCC(=O)N[C@@H](Cc1c[nH]c2cc(F)ccc12)C(=O)N[C@@H](CC(N)=O)C(=O)N[C@@H](CC(C)C)C(=O)N[C@H](C(=O)N[C@@H](CCCNC(=N)N)C(=O)N[C@H](C(=O)NCC(=O)N[C@@H](CC(C)C)C(=O)N[C@H](C(=O)N[C@@H](CCCNC(=N)N)C(N)=O)[C@@H](C)O)[C@@H](C)CC)C(C)C [Compound 174] (Pentanoyl-[Trp(6-F)]NLVRIGLTR-NH2)	–	–	–	≥ 50 µM	6.2 µM	≥ 50 µM	–
CCCCC(=O)N[C@@H](Cc1c[nH]c2cc(C)ccc12)C(=O)N[C@@H](CC(N)=O)C(=O)N[C@@H](CC(C)C)C(=O)N[C@H](C(=O)N[C@@H](CCCNC(=N)N)C(=O)N[C@H](C(=O)NCC(=O)N[C@@H](CC(C)C)C(=O)N[C@H](C(=O)N[C@@H](CCCNC(=N)N)C(N)=O)[C@@H](C)O)[C@@H](C)CC)C(C)C [Compound 175] (Pentanoyl-[Trp(6-Me)]NLVRIGLTR-NH2)	–	–	–	≥ 50 µM	39 µM	≥ 50 µM	–
CCCCC(=O)N[C@@H](Cc1c[nH]c2ccccc12)C(=O)N[C@@H](CC(N)=O)C(=O)N[C@@H](CC(C)C)C(=O)N[C@H](C(=O)N[C@@H](CCCNC(=N)N)C(=O)N[C@H](C(=O)NCC(=O)N[C@@H](CC(C)C)C(=O)N[C@H](C(=O)N[C@@H](CCCNC(=N)N)C(=O)O)[C@@H](C)O)[C@@H](C)CC)C(C)C [Compound 176] (Pentanoyl-WNLVRIGLTR-OH)	–	–	–	≥ 50 µM	18 µM	≥ 50 µM	–
